Laboratory results: US20250009885A1, “INJECTABLE PHARMACEUTICAL FORMULATIONS OF LEFAMULIN” (NABRIVA THERAPEUTICS GMBH, priority 2015, published 2025)

Key:
Format in all cases: physicochemical
[1] = Solubility of BC-3781 acetate in various media
Description: The solubility of BC-3781 acetate in various media is as follows: […]

pKa value measured = test: pKa value measured
[2] = Stability at physiological pH; conditions: pH 6.8 to 7.4
Description: Reported local tolerability issues are often linked to insufficient solubity of the compound at physiological pH which, however, is not the case for BC-3781.

solubility ([1]; aqueous buffer, pH 7.4 (300 mM phosphate buffer)) [mg/mL]	solubility ([1]; water) [mg/mL]	pKa (pKa value measured)	Stability at physiological pH [2]	Structure (SMILES)
≥ 100	≥ 100			C=C[C@]1(C)C[C@@H](OC(=O)CS[C@@H]2CC[C@@H](N)C[C@H]2O)[C@]2(C)[C@H](C)CC[C@]3(CCC(=O)[C@H]32)[C@@H](C)[C@@H]1O [BC-3781 acetate, 14-O-{[(1R, 2R, 4R)-4-amino-2-hydroxy-cyclohexylsulfanyl]-acetyl}-mutilin]
		9.41	excellent stability	C=C[C@]1(C)C[C@@H](OC(=O)CS[C@@H]2CC[C@@H](N)C[C@H]2O)[C@]2(C)[C@H](C)CC[C@]3(CCC(=O)[C@H]32)[C@@H](C)[C@@H]1O [BC-3781, 14-O-{[(1R, 2R, 4R)-4-amino-2-hydroxy-cyclohexylsulfanyl]-acetyl}-mutilin]
